# According to patent publication US8663607B2, “Ferrate(VI)-containing compositions and methods of using ferrate(VI)” (Battelle Memorial Institute, priority 2007, dated 2014):
# Experiment: Stain removal from calcium deficient hydroxyapatite disks (human tooth model), tea stain
# Procedure: Tea staining Solution: 200 mL of high-purity deionized (HPDI) water was heated to boiling in a 500-mL beaker. The beaker was removed from heat and 4 Lipton™ tea bags were added. The tea bags were allowed to soak for 5 minutes. The tea bags were pressed with a spatμLa upon removal to remove liquid.
# Tea staining Procedure: A calcium-deficient hydroxyapatite (HAP) disk (Clarkson Chromatography Products) was placed into a 50-mL centrifuge tube with 10 mL of tea solution. The centrifuge tube was gently shaken by hand for 15 minutes. The tea solution was decanted and replaced with 10 mL of HPDI water and vortexed for 30 seconds. The water was decanted and replaced with 10 additional mL of HPDI water and vortexed for 30 seconds. The disk was removed with forceps and patted dry with a tissue. The disk was allowed to air dry at room temperature for at least one hour.
# Oxidation resistant chelating buffer: 0.25M 1-Hydroxyethylidenediphosphonic acid (etridonic acid) (Dequest® 2010, Thermphos) (HEPA) was pH adjusted by microtitration with 10N NaOH. 1.28 g of 1-Hydroxyethylidenediphosphonic acid was to a 25-mL volumetric flask and brought to volume with HPDI water. The solution was transferred to a 50-mL beaker with a stir bar and pH adjusted using 10.04N NaOH, monitored with a calibrated pH meter. Aliquat 336® (Cognis) (also suitable is Aliquat 134®) (N-methyl-tri-(n-octyl)ammonium chloride), (N-methyl TOA) or “HEPA” chelating pH Buffer: 2.5-μL of N-methyl TOA was added to 5 mL of pH 7 HEPA buffer and sonicated for 1 minute. pH 7 Sodium Dodecyl Sulfate (SDS)/HEPA Buffer: 10 mg of SDS was added to 5 mL of pH 7 HEPA buffer and sonicated for 1 minute. pH 8 SDS/HEPA Buffer: 10 mg of SDS was added to 5 mL of pH 8 HEPA buffer and sonicated for 1 minute.
# • A. A tea stained disk was placed into the bowl of the bowl of a watch glass and 100 μL of pH 7 HEPA buffer was pipetted onto the disk surface. 3.7 mg of potassium ferrate(VI) was added to the disk surface and mixed gently. […] The disk was rinsed at 10 minutes with HPDI water. […] 1 mL of pH 7 HEPA buffer was added followed by 9 mL of HPDI water. 9.7 mg of potassium ferrate(VI) was added. The tube was gently hand shaken for 10 minutes. The disk was removed and rinsed with HPDI water. […] 10 mg of potassium ferrate(VI) was added to 1 mL of pH 7 HEPA buffer in a 50 mL centrifuge tube. 9 mL HPDI water was added, and the solution was shaken for a few seconds followed by the addition of a tea stained HAP disk. The disk was removed at 10 minutes and rinsed with HPDI water. […] 1.3 mg of potassium ferrate(VI) added and mixed into the solution.
# [1] = disk A-2: 30 mg calcium carbonate + 250 μL HPDI water, 10 mg, no chelating buffer, rinsed at 5 minutes
# [2] = disk A: 100 μL pH 7 HEPA buffer, 3.7 mg added to disk surface, rinsed at 10 minutes
# [3] = disk B-1: 10 mg calcium carbonate + 12 mg in 2 mL pH 8 SDS/HEPA buffer, 5 minutes, then 1 mL buffer 45 minutes
# [4] = disk B: 1 mL pH 7 HEPA buffer + 9 mL water, 9.7 mg, shaken 10 minutes
# [5] = disk E: 100 μL pH 7 HEPA buffer, 1.4 mg, 5 minutes, then 100 μL pH 7 HEPA buffer 5 minutes
# [6] = disk F: 100 μL pH 7 HEPA buffer + one drop of N-methyl TOA (emulsion), 1 mg
# [7] = disk G: 100 μL N-methyl TOA/HEPA buffer, 0.7 mg, rinsed at 5 minutes, then 100 μL buffer 5 minutes
# [8] = disk H: 100 μL N-methyl TOA/HEPA buffer, 1.3 mg, 5 minutes, then 2 x 100 μL buffer 5 minutes each
# [9] = disk I: 100 μL N-methyl TOA/HEPA buffer, 1.3 mg (uneven distribution), 5 minutes, then 200 μL buffer
# [10] = disk J: 200 μL N-methyl TOA/HEPA buffer, 2.3 mg, 5 minutes, then 200 μL buffer 5 minutes
# [11] = disk K: 9.9 mg premixed in 1 mL N-methyl TOA/HEPA buffer, disk fully covered 10 minutes, then 400 μL buffer 45 minutes
# [12] = disk L: 100 μL pH 7 SDS/HEPA buffer, 1.3 mg, 10 minutes, then 100 μL buffer ten minutes
# [13] = disk M: 1 mL of 29.3 mg in 3 mL pH 7 SDS/HEPA buffer, 3 minutes, then buffer soaks 8 and 35 minutes, extra rinse
# [14] = disk N: 1 mL of 29.3 mg in 3 mL pH 7 SDS/HEPA buffer, 3 minutes, then buffer soaks 8 and 35 minutes, extra rinse
# [15] = disk P: overnight tea stain, 0.75 mL of 25 mg in 1.5 mL pH 8 SDS/HEPA buffer, 5 minutes, then 1 mL buffer 45 minutes, rinsed again after drying one hour
# [16] = disk Q: overnight tea stain, 0.75 mL of 25 mg in 1.5 mL pH 8 SDS/HEPA buffer, 5 minutes, then 1 mL buffer 45 minutes
# [17] = disk S: tea stained disk treated the same way as P and Q (replicate)
# [18] = disk U: treated the same way as P and Q, then submerged in HPDI water 45 minutes instead of drying
substance,measurement,setting,value
potassium ferrate(VI),L* (lightness/darkness),[1],69.5
same,a* (blue/red),[1],14.4
same,appearance of disk after treatment,[1],the color was not removed
same,b* (yellow/green),[1],26
same,reflectance of visible light at 450 nm,[1],22.036
same,reflectance of visible light at 750 nm,[1],64.152
same,ΔE (versus tea stain),[1],29.21
same,L* (lightness/darkness),[2],72
same,a* (blue/red),[2],2.6
same,appearance of disk after treatment,[2],stained purple with rust stains
same,b* (yellow/green),[2],−1.1
same,reflectance of visible light at 450 nm,[2],44.547
same,reflectance of visible light at 750 nm,[2],61.521
same,ΔE (versus tea stain),[2],13.57
same,L* (lightness/darkness),[3],100.8
same,a* (blue/red),[3],0.5
same,appearance of disk after treatment,[3],All stains were removed
same,b* (yellow/green),[3],0.1
same,reflectance of visible light at 450 nm,[3],100.124
same,reflectance of visible light at 750 nm,[3],103.677
same,"ΔE (versus B-2, tea stained)",[3],15.29
same,L* (lightness/darkness),[4],79.1
same,a* (blue/red),[4],1.6
same,appearance of disk after treatment,[4],stained purple with rust stains
same,b* (yellow/green),[4],−2
same,reflectance of visible light at 450 nm,[4],57.457
same,reflectance of visible light at 750 nm,[4],69.889
same,ΔE (versus tea stain),[4],8.29
same,appearance of disk after treatment,"disk C: 10 mg premixed in 1 mL pH 7 HEPA buffer + 9 mL water, disk removed at 10 minutes",stained purple
same,L* (lightness/darkness),[5],90.1
same,a* (blue/red),[5],1.3
same,appearance of disk after treatment,[5],lighter purple than previous examples
same,b* (yellow/green),[5],−2.2
same,reflectance of visible light at 450 nm,[5],77.562
same,reflectance of visible light at 750 nm,[5],87.011
same,ΔE (versus unstained disk),[5],4.24
same,L* (lightness/darkness),[6],77
same,a* (blue/red),[6],2.1
same,appearance of disk after treatment,[6],purple with streaks where mixing occurred
same,b* (yellow/green),[6],0.7
same,reflectance of visible light at 450 nm,[6],44.547
same,reflectance of visible light at 750 nm,[6],68.873
same,ΔE (versus tea stain),[6],8.65
same,L* (lightness/darkness),[7],94
same,a* (blue/red),[7],0.6
same,appearance of disk after treatment,[7],purple color was removed but brown staining observed
same,b* (yellow/green),[7],−0.1
same,reflectance of visible light at 450 nm,[7],82.923
same,reflectance of visible light at 750 nm,[7],92.128
same,ΔE (versus tea stain),[7],10.88
same,L* (lightness/darkness),[8],93.6
same,a* (blue/red),[8],1.3
same,appearance of disk after treatment,[8],light brown color
same,b* (yellow/green),[8],0.6
same,reflectance of visible light at 450 nm,[8],82.479
same,reflectance of visible light at 750 nm,[8],93.202
same,ΔE (versus tea stain),[8],10.06
same,L* (lightness/darkness),[9],91.2
same,a* (blue/red),[9],−0.8
same,appearance of disk after treatment,[9],More decoloring was observed at the center
same,b* (yellow/green),[9],−4.7
same,reflectance of visible light at 450 nm,[9],83.889
same,reflectance of visible light at 750 nm,[9],83.121
same,ΔE (versus tea stain),[9],11.69
same,L* (lightness/darkness),[10],87.5
same,a* (blue/red),[10],−0.1
same,appearance of disk after treatment,[10],Rust spots observed
same,b* (yellow/green),[10],−3.9
same,reflectance of visible light at 450 nm,[10],44.547
same,reflectance of visible light at 750 nm,[10],78.071
same,ΔE (versus tea stain),[10],9.10
same,L* (lightness/darkness),[11],100.8
same,a* (blue/red),[11],−0.3
same,appearance of disk after treatment,[11],Significant color removal was observed
same,b* (yellow/green),[11],−2.1
same,reflectance of visible light at 450 nm,[11],102.827
same,reflectance of visible light at 750 nm,[11],103.311
same,ΔE (versus tea stain),[11],17.77
same,L* (lightness/darkness),[12],99.1
same,a* (blue/red),[12],−0.4
same,appearance of disk after treatment,[12],Most of the color was removed from the center of the disk
same,b* (yellow/green),[12],−2.2
same,reflectance of visible light at 450 nm,[12],99.384
same,reflectance of visible light at 750 nm,[12],98.847
same,ΔE (versus tea stain),[12],16.32
same,L* (lightness/darkness),[13],100.1
same,a* (blue/red),[13],0
same,b* (yellow/green),[13],−1.9
same,reflectance of visible light at 450 nm,[13],100.820
same,reflectance of visible light at 750 nm,[13],102.480
same,ΔE (versus disk 0),[13],12.15
same,L* (lightness/darkness),[14],100.6
same,a* (blue/red),[14],−0.3
same,b* (yellow/green),[14],−1.4
same,reflectance of visible light at 450 nm,[14],101.538
same,reflectance of visible light at 750 nm,[14],101.930
same,ΔE (versus disk O),[14],12.63
same,L* (lightness/darkness),[15],103.5
same,a* (blue/red),[15],−2.1
same,b* (yellow/green),[15],−3.2
same,reflectance of visible light at 450 nm,[15],111.059
same,reflectance of visible light at 750 nm,[15],103.081
same,ΔE (versus disk R),[15],25.40
same,L* (lightness/darkness),[16],101.8
same,a* (blue/red),[16],−1.2
same,b* (yellow/green),[16],−0.7
same,reflectance of visible light at 450 nm,[16],103.784
same,reflectance of visible light at 750 nm,[16],101.164
same,ΔE (versus disk R),[16],22.83
same,L* (lightness/darkness),[17],99.3
same,a* (blue/red),[17],0
same,reflectance of visible light at 450 nm,[17],98.555
same,reflectance of visible light at 750 nm,[17],98.659
same,L* (lightness/darkness),[18],96.9
same,a* (blue/red),[18],0.4
same,appearance of disk after treatment,[18],Color was removed as effectively as with a dried sample
same,b* (yellow/green),[18],0.3
same,reflectance of visible light at 450 nm,[18],89.892
same,reflectance of visible light at 750 nm,[18],94.030
same,ΔE (versus tea stain),[18],13.44
